Source: US20260137754A1, “APPLICATION OF A COMBINATION DRUG IN THE TREATMENT OF PATHOGENIC BACTERIAL PERSISTENT INFECTIONS” (priority 2023, published 2026)
Values after ≈ are worked out from the molar mass of the structure shown. Values joined by “and” are separate entries in the source; they are usually repeats but may differ in a detail not shown here. Identical values can stand only once. Like-named read-outs stand apart in the source and are kept apart here.

Columns and labels:
[1] = tested on: wild-type E. coli BW25113; experiment: Minimum inhibitory concentration (MIC); assay type: cell-based, Escherichia coli
[2] = tested on: wild-type E. coli BW25113; experiment: Survival / persistence level (CFU) of stationary-phase culture diluted 1:20 into fresh LB with antibiotic; assay type: cell-based, Escherichia coli; settings: for persistence survival level / persistence rate: monotherapy 10 hours, kanamycin 3 MIC, ciprofloxacin 20 MIC, ampicillin 20 MIC, polymyxin B 3 MIC
Description: (§1) The proportion of persisting cells in bacterial cultures typically reaches higher levels during the nutrient-depleted stationary phase. To investigate the persistence capacity of the model bacterium Escherichia coli(E. coli) against most bactericidal antibiotics, the standard BW25113 strain with E. coli K12 background was cultured at 37° C. in commercially available LB liquid medium until reaching the stationary phase. The culture was then inoculated at a 1:20 dilution into fresh LB liquid medium containing antibiotics at multiple dilutions of the minimum inhibitory concentration (MIC). Samples were collected after different treatment durations, and residual antibiotics were removed through two centrifugations. After tenfold serial dilution in physiological saline, the cultures were plated on LB agar plates without antibiotics. Survival colony-forming units (CFUs) were counted after two days of incubation, with initial CFU values before antibiotic addition serving as controls to calculate bacterial survival rates and persistence levels using conventional experimental methods. Testing for other bacteria followed the same protocol.
The culture was then incubated at 37° C. with shaking at 160 rpm for 10 hours. […] Each measurement was obtained from at least three independent experiments, with error bars representing the mean±standard deviation.

E. coli hipA7 strain = settings: for survival rate / viability: monotherapy 10 hours, kanamycin 3 MIC, ciprofloxacin 20 MIC, ampicillin 20 MIC, polymyxin B 3 MIC, mitomycin C 3 MIC
Description: as §1
(§2) Each measurement was obtained from at least three independent experiments, with error bars representing the mean±standard deviation.
as §2, §2

[3] = cited from earlier work
E. coli hipA7 cells [4] = experiment: Membrane potential, DiSC3(5) dye, flow cytometry; assay type: cell-based, Escherichia coli; settings: 0.9 μg/mL polymyxin B, 20 μg/mL kanamycin, combined or alone; up to 8 hours
Description: As represented by the combination antibiotic containing 0.9 μg/mL polymyxin B and 20 μg/mL kanamycin, the cell membrane damage in hipA7 cultures during stress-induced antibiotic killing was assessed. […] Samples were incubated at 37° C. with 160 rpm shaking for 8 hours. During sampling, 2.5 μM DiSC3 (5) was added in the first 10 minutes of each time point, followed by washing to remove the drugs and unbound dye. Flow cytometry was used to measure fluorescence intensity, with 100,000 cells analyzed per sample. […] Representative data from one of the experiments were selected for plotting.

E. coli hipA7 cells [5] = experiment: Cell membrane damage, propidium iodide (PI) staining; assay type: cell-based, Escherichia coli; settings: single drug
Description: Samples were incubated at 37° C. with 160 rpm shaking for 8 hours.
Parallel samples were treated with corresponding concentrations of individual drugs. Samples were collected at 0, 2, and 4 hours, with the addition of 5 μM PI dye 10 minutes prior to each collection time point. After washing with saline to remove antibiotics and extracellular dyes, cellular fluorescence intensity was analyzed by flow cytometry, with 100,000 cells analyzed per sample. The results from three independent experiments were basically the same. Representative data from one of the experiments were selected for plotting.

[6] = Escherichia coli, BW25113, read-out: MIC
[7] = clinical dosage guideline 2 mg/kg

Compound: CC1(C)S[C@@H]2[C@H](NC(=O)[C@H](N)c3ccccc3)C(=O)N2[C@H]1C(=O)O [ampicillin]
- MIC [1, 6]: 6 µg/mL (≈ 17.2 µM)
- persistence survival level / persistence rate [2]: 0.001%
- survival rate / viability (E. coli hipA7 strain): Approximately 10%

Compound: O=C(O)c1cn(C2CC2)c2cc(N3CCNCC3)c(F)cc2c1=O [ciprofloxacin]
- MIC [1, 6]: 0.03 µg/mL (≈ 0.0905 µM)
- persistence survival level / persistence rate [2]: 0.001%
- survival rate / viability (E. coli hipA7 strain): Approximately 10%

Compound: NC[C@H]1O[C@H](O[C@H]2[C@H](O)[C@@H](O[C@H]3O[C@H](CO)[C@@H](O)[C@H](N)[C@H]3O)[C@H](N)C[C@@H]2N)[C@H](O)[C@@H](O)[C@@H]1O [kanamycin]
- MIC [1, 6]: 8 µg/mL (≈ 16.5 µM)
- peak serum concentration ([3]; clinical): 20 µg/mL and 18 to 20 µg/mL
- viability decreased ([2]; kanamycin 24 μg/mL (3 MIC), 10 hours): 100,000 fold
- persistence survival level / persistence rate [2]: 0.001%
- survival rate, times higher than that of wild-type E. coli (E. coli hipA7 strain; 3 MIC kanamycin, 10 hours): 10,000 times
- survival rate / viability (E. coli hipA7 strain): 10%

Compound: CO[C@@]12[C@H](COC(N)=O)C3=C(C(=O)C(C)=C(N)C3=O)N1C[C@@H]1N[C@@H]12 [mitomycin C]
- MIC [1]: 0.8 µg/mL (≈ 2.39 µM)

Compound: polymyxin
- average serum concentration [3, 7]: approximately 2.8 μg/mL
- serum concentration range [3, 7]: 680 to 4880 ng/mL

Compound: polymyxin B
- MIC [1]: 0.3 µg/mL
- DiSC3(5) fluorescence signal (membrane potential) (E. coli hipA7 cells [4]): no significant enhancement of DiSC3(5) fluorescence signal
- PI fluorescence (membrane disruption) (E. coli hipA7 cells [5]; after 2 hours): majority of cells showed no increase in PI fluorescence
- PI fluorescence (membrane disruption) (E. coli hipA7 cells [5]; after 4 hours): only a minimal number of cells exhibiting detectable signals
- persistence survival level / persistence rate [2]: 0.001%
- survival rate / viability (E. coli hipA7 strain): Approximately 10%
